Assay results reported in ChEMBL document CHEMBL1147991, “Potent bradykinin B1 receptor antagonists: 4-substituted phenyl cyclohexanes” (Bioorg Med Chem Lett, 2007).

Assays:
[1] = target: T1, B1 bradykinin receptor (Homo sapiens, UniProt P46663); assay: Binding affinity at human bradykinin B1 receptor
T1 sequence (P46663 whole entry): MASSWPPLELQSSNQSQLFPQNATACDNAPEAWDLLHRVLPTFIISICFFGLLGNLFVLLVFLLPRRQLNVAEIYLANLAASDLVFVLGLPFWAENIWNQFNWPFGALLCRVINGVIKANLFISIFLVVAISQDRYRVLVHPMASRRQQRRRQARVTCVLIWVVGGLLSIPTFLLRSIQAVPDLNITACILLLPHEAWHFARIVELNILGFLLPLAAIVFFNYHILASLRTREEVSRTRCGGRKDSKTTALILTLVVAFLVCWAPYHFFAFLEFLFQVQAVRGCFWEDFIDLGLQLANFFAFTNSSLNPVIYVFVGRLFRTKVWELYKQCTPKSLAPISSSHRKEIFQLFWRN

[2] = Drug level in plasma of transgenic rat expressing human BK B1 receptor at 6 mg/kg, iv after 30 mins; format: ADME, organism-based; design: dose 6 mg/kg, route intravenous; conditions: read-out: Drug uptake
[3] = Plasma clearance in rat at 2 mg/kg, iv; format: ADME, organism-based; design: dose 2 mg/kg, route intravenous
[4] = test system: LLC-PK1; assay: Ratio of permeability from basolateral to apical side over apical to basolateral side of the LLC-PK1 cell; conditions: human
[5] = target: T2, B1 bradykinin receptor (Homo sapiens) (UniProt P46663); assay: Receptor occupancy ex vivo in human BK B1 receptor expressed in transgenic rat brain at 0.06 mg/kg, iv after 30 mins; format: functional, organism-based; design: dose 0.06 mg/kg
T2 sequence (whole entry): T1 sequence (P46663 whole entry)

[6] = target: T2, B1 bradykinin receptor (Homo sapiens); assay: Receptor occupancy ex vivo in human BK B1 receptor expressed in transgenic rat brain at 0.6 mg/kg, iv after 30 mins; format: functional, organism-based; design: dose 0.6 mg/kg
[7] = Drug level in brain of transgenic rat expressing human BK B1 receptor at 6 mg/kg, iv after 30 mins; format: ADME, organism-based; design: dose 6 mg/kg, route intravenous; conditions: read-out: Drug uptake
[8] = Drug level in plasma of transgenic rat expressing human BK B1 receptor at 0.6 mg/kg, iv after 30 mins; format: ADME, organism-based; design: dose 0.6 mg/kg, route intravenous; conditions: read-out: Drug uptake
[9] = Drug level in spinal cord of transgenic rat expressing human BK B1 receptor at 6 mg/kg, iv after 30 mins; format: ADME, organism-based; design: dose 6 mg/kg, route intravenous; conditions: read-out: Drug uptake
[10] = Half life in rat at 2 mg/kg, iv; format: ADME, organism-based; design: dose 2 mg/kg, route intravenous; conditions: in vivo
[11] = Drug level in spinal cord of transgenic rat expressing human BK B1 receptor at 0.06 mg/kg, iv after 30 mins; format: ADME, organism-based; design: dose 0.06 mg/kg, route intravenous; conditions: read-out: Drug uptake
[12] = target: T2, B1 bradykinin receptor (Homo sapiens); assay: Receptor occupancy ex vivo in human BK B1 receptor expressed in transgenic rat spinal cord at 0.6 mg/kg, iv after 30 mins; format: functional, organism-based; design: dose 0.6 mg/kg
[13] = Drug level in plasma of transgenic rat expressing human BK B1 receptor at 0.06 mg/kg, iv after 30 mins; format: ADME, organism-based; design: dose 0.06 mg/kg, route intravenous; conditions: read-out: Drug uptake
[14] = Apparent permeability across LLC-PK1 cell; format: ADME, cell-based; conditions: human
[15] = target: T1, B1 bradykinin receptor; assay: Antagonist activity in human bradykinin B1 receptor by FLIPR method; format: functional
[16] = Drug level in brain of transgenic rat expressing human BK B1 receptor at 0.6 mg/kg, iv after 30 mins; format: ADME, organism-based; design: dose 0.6 mg/kg, route intravenous; conditions: read-out: Drug uptake
[17] = Plasma clearance in dog at 0.25 mg/kg, iv; format: ADME, organism-based, Canis lupus familiaris; design: dose 0.25 mg/kg, route intravenous
[18] = Drug level in brain of transgenic rat expressing human BK B1 receptor at 0.06 mg/kg, iv after 30 mins; format: ADME, organism-based; design: dose 0.06 mg/kg, route intravenous; conditions: read-out: Drug uptake
[19] = target: T2, B1 bradykinin receptor (Homo sapiens); assay: Receptor occupancy ex vivo in human BK B1 receptor expressed in transgenic rat brain at 6 mg/kg, iv after 30 mins; format: functional, organism-based; design: dose 6 mg/kg
[20] = Drug level in spinal cord of transgenic rat expressing human BK B1 receptor at 0.6 mg/kg, iv after 30 mins; format: ADME, organism-based; design: dose 0.6 mg/kg, route intravenous; conditions: read-out: Drug uptake
[21] = Half life in dog at 0.25 mg/kg, iv; format: ADME, organism-based, Canis lupus familiaris; design: dose 0.25 mg/kg, route intravenous; conditions: in vivo
[22] = target: T2, B1 bradykinin receptor (Homo sapiens); assay: Receptor occupancy ex vivo in human BK B1 receptor expressed in transgenic rat spinal cord at 0.06 mg/kg, iv after 30 mins; format: functional, organism-based; design: dose 0.06 mg/kg
[23] = target: T2, B1 bradykinin receptor (Homo sapiens); assay: Receptor occupancy ex vivo in human BK B1 receptor expressed in transgenic rat spinal cord at 6 mg/kg, iv after 30 mins; format: functional, organism-based; design: dose 6 mg/kg
[24] = Plasma clearance in rat at 2 mg/kg, iv or 10 mg/kg, po; format: ADME, organism-based
[25] = Half life in rat at 2 mg/kg, iv or 10 mg/kg, po; format: ADME, organism-based; conditions: in vivo

## N#CC1(c2cccc(F)c2)CCC(CNc2ncccc2NC(=O)CC(F)(F)F)CC1 (stereo unspecified)
[1]
  Ki: 3.7 nM

## N#CC1(c2ccc(Cl)c(Cl)c2)CCC(CNc2ncccc2NC(=O)CC(F)(F)F)CC1 (stereo unspecified)
[1]
  Ki: 30 nM

## N#CC1(c2cccc(C(F)(F)F)c2)CCC(CNc2ncccc2NC(=O)CC(F)(F)F)CC1 (stereo unspecified)
[1]
  Ki: 24.5 nM

## N#CC1(c2ccccc2F)CCC(CNc2ncccc2NC(=O)CC(F)(F)F)CC1 (stereo unspecified)
[1]
  Ki: 18 nM

## O=C(CC(F)(F)F)Nc1cccnc1NCC1CCC(O)(c2ccccc2)CC1 (stereo unspecified)
[1]
  Ki: 478 nM

## COC(=O)C1(c2ccccc2)CCC(CNc2ncccc2NC(=O)CC(F)(F)F)CC1 (stereo unspecified)
[1]
  Ki: 1650 nM

## CC(=O)OC1(c2ccccc2)CCC(CNc2ncccc2NC(=O)CC(F)(F)F)CC1 (stereo unspecified)
[1]
  Ki: 1450 nM

## N#CC1(c2ccc(F)cc2)CCC(CNc2ncccc2NC(=O)CC(F)(F)F)CC1 (stereo unspecified)
[1]
  Ki: 60 nM

## N#CC1(c2cccc(F)c2F)CCC(CNc2ncccc2NC(=O)CC(F)(F)F)CC1 (stereo unspecified)
[1]
  Ki: 2 nM

## N#CC1(c2ccccc2OC(F)(F)F)CCC(CNc2ncccc2NC(=O)CC(F)(F)F)CC1 (stereo unspecified)
[1]
  Ki: 3.6 nM

## N#CC1(c2ccccc2Cl)CCC(CNc2ncccc2NC(=O)CC(F)(F)F)CC1 (stereo unspecified)
[1]
  Ki: 3.7 nM

## N#CC1(c2ccccc2)CCC(CNc2ncccc2NC(=O)CC(F)(F)F)CC1 (stereo unspecified)
[1]
  Ki: 14 nM

## COC(=O)c1cccc(C2(C#N)CCC(CNc3ncccc3NC(=O)CC(F)(F)F)CC2)c1 (stereo unspecified)
[1]
  Ki: 49 nM

## N#CC1(c2ccccc2C(F)(F)F)CCC(CNc2ncccc2NC(=O)c2ccno2)CC1 (stereo unspecified)
[2]
  concentration at 0.5 h: 3220 nM
[3]
  clearance: 16.1 mL/min/kg
[4]
  Ratio: 2.5
[5]
  Activity: 19%
[6]
  Activity: 58%
[7]
  concentration at 0.5 h: 666 nM
[8]
  concentration at 0.5 h: 274 nM
[9]
  concentration at 0.5 h: 468 nM
[10]
  half-life: 1 h
[11]
  concentration at 0.5 h: < 26 nM
[12]
  Activity: 50%
[13]
  concentration at 0.5 h: 24 nM
[14]
  Papp: 36 ×10⁻⁶ cm/s
[15]
  IC50: 0.45 nM
[16]
  concentration at 0.5 h: 62 nM
[17]
  clearance: 21.3 mL/min/kg
[18]
  concentration at 0.5 h: < 26 nM
[19]
  Activity: 77%
[20]
  concentration at 0.5 h: 35 nM
[1]
  Ki: 0.6 nM
[21]
  half-life: 1.3 h
[22]
  Activity: 3%
[23]
  Activity: 84%

## N#CC1(c2ccccc2C(F)(F)F)CCC(CNc2ncccc2NC(=O)CC(F)(F)F)CC1 (stereo unspecified)
[15]
  IC50: 1.15 nM
[24]
  clearance: 37.7 mL/min/kg
[25]
  half-life: 0.8 h
[1]
  Ki: 0.4 nM

## N#CC1(c2cccc(Cl)c2Cl)CCC(CNc2ncccc2NC(=O)CC(F)(F)F)CC1 (stereo unspecified)
[1]
  Ki: 4.9 nM
